44 compounds from patent publication US5250679A, “Nonpeptidyl platelet aggregation inhibitors having specificity for the GPIIb III receptor” (Genentech, Inc., priority 1992, dated 1993) can be followed below.

SMILES strings stand for the structures. Counter-ions that a name gives are not always drawn.

The first experiment deals with T1, GP IIb IIIa (Homo sapiens, UniProt P05106+P08514).
T1 construct: from tissue; host or cells: outdated human platelets
T1 sequence (P08514 32-887 limits assumed): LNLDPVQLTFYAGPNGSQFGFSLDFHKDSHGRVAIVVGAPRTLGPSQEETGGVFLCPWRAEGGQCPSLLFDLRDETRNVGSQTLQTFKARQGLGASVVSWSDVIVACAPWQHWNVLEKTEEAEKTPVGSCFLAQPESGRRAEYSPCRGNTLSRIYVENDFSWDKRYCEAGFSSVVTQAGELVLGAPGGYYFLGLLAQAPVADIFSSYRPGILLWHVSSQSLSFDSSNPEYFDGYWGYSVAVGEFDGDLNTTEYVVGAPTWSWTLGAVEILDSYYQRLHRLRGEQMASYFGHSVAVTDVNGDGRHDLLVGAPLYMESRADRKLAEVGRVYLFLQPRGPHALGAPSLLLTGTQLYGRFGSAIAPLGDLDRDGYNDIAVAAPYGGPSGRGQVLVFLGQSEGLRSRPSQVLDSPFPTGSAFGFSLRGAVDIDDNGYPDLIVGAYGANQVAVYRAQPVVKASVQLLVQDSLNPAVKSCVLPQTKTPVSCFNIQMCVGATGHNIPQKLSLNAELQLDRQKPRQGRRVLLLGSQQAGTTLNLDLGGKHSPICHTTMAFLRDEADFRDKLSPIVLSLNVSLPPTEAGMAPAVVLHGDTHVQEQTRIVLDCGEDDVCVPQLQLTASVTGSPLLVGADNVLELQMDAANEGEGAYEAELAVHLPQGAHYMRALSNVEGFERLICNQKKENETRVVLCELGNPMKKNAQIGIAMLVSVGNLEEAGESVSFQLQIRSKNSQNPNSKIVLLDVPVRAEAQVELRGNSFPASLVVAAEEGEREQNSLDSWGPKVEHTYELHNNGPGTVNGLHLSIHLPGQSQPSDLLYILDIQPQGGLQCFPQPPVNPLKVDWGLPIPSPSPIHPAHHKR
T1 sequence (P08514 891-1039 partner limits assumed): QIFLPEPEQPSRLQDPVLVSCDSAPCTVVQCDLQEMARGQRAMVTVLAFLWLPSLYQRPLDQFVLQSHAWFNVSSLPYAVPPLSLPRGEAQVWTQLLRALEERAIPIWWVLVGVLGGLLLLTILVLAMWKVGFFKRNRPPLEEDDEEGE
T1 sequence (P05106 27-788): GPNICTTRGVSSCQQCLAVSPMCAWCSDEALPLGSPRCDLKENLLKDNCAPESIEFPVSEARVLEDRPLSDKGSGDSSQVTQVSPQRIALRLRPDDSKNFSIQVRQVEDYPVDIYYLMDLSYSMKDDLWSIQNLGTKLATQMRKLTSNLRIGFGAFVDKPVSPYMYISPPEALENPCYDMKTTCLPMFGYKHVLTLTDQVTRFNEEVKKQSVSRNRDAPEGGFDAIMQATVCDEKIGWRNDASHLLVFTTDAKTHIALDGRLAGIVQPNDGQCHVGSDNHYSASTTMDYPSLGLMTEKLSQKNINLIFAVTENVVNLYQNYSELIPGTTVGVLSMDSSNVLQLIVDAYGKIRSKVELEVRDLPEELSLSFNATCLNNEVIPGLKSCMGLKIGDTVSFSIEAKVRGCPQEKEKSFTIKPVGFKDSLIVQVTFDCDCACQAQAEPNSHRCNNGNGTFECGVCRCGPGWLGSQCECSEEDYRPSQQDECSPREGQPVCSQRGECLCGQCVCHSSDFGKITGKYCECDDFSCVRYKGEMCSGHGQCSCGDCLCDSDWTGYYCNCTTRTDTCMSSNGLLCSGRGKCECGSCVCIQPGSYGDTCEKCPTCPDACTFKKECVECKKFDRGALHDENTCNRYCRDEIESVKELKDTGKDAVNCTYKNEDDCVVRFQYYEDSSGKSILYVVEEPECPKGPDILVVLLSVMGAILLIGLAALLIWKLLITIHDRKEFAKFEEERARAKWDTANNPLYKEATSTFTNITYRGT
The experiment can be described thus: Fibrinogen-GP IIb IIIa Receptor ELISA Binding Assay (Fg/IIbIIIa). Conditions: Example 29, Cmpd # 1-105; read-out: IC50 Fg/IIbI. On the procedure:
Briefly, microtiter plates are coated with fibrinogen (10 mg/ml) and then blocked with TACTS buffer containing 0.5% bovine serum albumin (BSA). […] After another wash a goat anti-mouse IgG conjugated to horseradish peroxidase is added. […] The reaction is stopped with 1N sulfuric acid and the absorbance at 492 nm is recorded. […] Outdated human platelets are washed 3 times with 10 mM tris-HCl, 150 mM NaCl (TBS), 1 mM EDTA, pH 7.5, and centrifuged at 2000×g to pellet cells. […] The supernatant fraction is collected and the supernatant is loaded onto a concanavalin-A column, previously equilibrated in TBS, 1 mM Ca2 Cl2, 0.1% Triton, 0.05% NaN3 and eluted with 0.2M a-methylmannoside. Fractions are pooled and loaded onto a heparin-agarose column. The flowthrough is collected and concentrated on an Amicon YM 30 filter to a volume of approximately 5-10 ml. The concentrate is then applied to an S-300 column (500 ml) and 6 ml fractions are collected. The GP IIb IIIa containing fractions are collected, pooled, and stored at -80° C. […] The precipitate is spun down in appropriate size bottles at 2000×g. The supernatant is decanted and the precipitate resuspended in 150 mM NaCl (approximately 50% of the original volume). […] The suspension is spun down and the precipitate is resuspended in Tris-saline in a minimal volume (approximately 5% of the original volume). Any remaining insoluble material is spun down at 2000 rpm in a Sorval type centrifuge and the fibrinogen supernatant is decanted and dialyzed overnight at 4° C. against Tris-saline. Characterization of the fibrinogen is by the Bradford protein assay, SDS-PAGE, and/or Western blotting using well known standard procedures. Briefly, 96 well plates are coated (Type Nunc 1 MaxisorpTM) with 10 mg/ml purified fibrinogen ([…]), and allowed to stand overnight at 4° C. […] The plates are again washed three times with PBS/Tween and then […] of sample in TNCNT is added. The mixture is incubated for 15 minutes at room temperature on a plate shaker. […] Fifty ml of this diluted GP IIb IIIa is then added to each well and incubated on a plate shaker at room temperature. After one hour, the plates are washed four times with PBS/Tween and 100 ml of a polyclonal or monoclonal antibody specific for GP IIIa such as AP3 (1 mg/ml) (See e.g. […] After a one hour incubation at room temperature on a plate shaker, the samples are washed 4 times with PBS/Tween. […] The color develops within about 3 to 20 minutes and the reaction is stopped with 100 ml 1M H2 SO4. The optical density at 492 nm vs 405 nm is recorded and IC50 values are determined.
In the case of `N=C(N)NCCCCCCc1ccc2c(c1)C(=O)N(CCC(=O)O)CC(=O)N2Cc1cccc(Oc2ccccc2)c1` [Cmpd 91, 1-(m-phenoxybenzyl)-4-(2-carboxyethyl)-7-(6-guanidinohexyl)-3,4-dihydro-1H-1,4-benzodiazepine-2,5-dione trifluoroacetate], the IC50 amounted to 0.009 µM.

With `N=C(N)NCCCCCc1ccc2c(c1)C(=O)N(CCC(=O)O)CC(=O)N2Cc1cccc(Oc2ccccc2)c1` [Cmpd 92, 1-(m-phenoxybenzyl)-4-(2-carboxyethyl)-7-(5-guanidinopentyl)-3,4-dihydro-1H-1,4-benzodiazepine-2,5-dione trifluoroacetate], the IC50 came to 0.011 µM. Take `N=C(N)NCCCCCc1ccc2c(c1)C(=O)N(CCC(=O)O)CC(=O)N2Cc1ccc(C(F)(F)F)cc1` [Cmpd 93, 1-(p-trifluoromethylbenzyl)-4-(2-carboxyethyl)-7-(5-guanidinopentyl)-3,4-dihydro-1H-1,4-benzodiazepine-2,5-dione trifluoroacetate]: the IC50 amounted to 0.014 µM.

For the compound `NCCCCCCc1ccc2c(c1)C(=O)N(CCC(=O)O)CC(=O)N2Cc1cccc(Oc2ccccc2)c1` [Cmpd 94, 1-(m-phenoxybenzyl)-4-(2-carboxyethyl)-7-(6-aminohexyl)-3,4-dihydro-1H-1,4-benzodiazepine-2,5-dione trifluoroacetate], the IC50 is 0.009 µM. Turning to `NCCCCCc1ccc2c(c1)C(=O)N(CCC(=O)O)CC(=O)N2Cc1cccc(Oc2ccccc2)c1` [Cmpd 95, 1-(m-phenoxybenzyl)-4-(2-carboxyethyl)-7-(5-aminopentyl)-3,4-dihydro-1H-1,4-benzodiazepine-2,5-dione trifluoroacetate], the IC50 was found to be 0.108 µM.

Consider `NCCCCCc1ccc2c(c1)C(=O)N(CCC(=O)O)CC(=O)N2Cc1ccc(C(F)(F)F)cc1` [Cmpd 96, 1-(p-trifluoromethylbenzyl)-4-(2-carboxyethyl)-7-(5-aminopentyl)-3,4-dihydro-1H-1,4-benzodiazepine-2,5-dione trifluoroacetate], for which the IC50 was 0.186 µM.

As to `NCCCC#Cc1ccc2c(c1)C(=O)N(CCC(=O)O)CC(=O)N2Cc1ccc(F)cc1F` [Cmpd 97], the IC50 amounted to 0.13 µM. The same measure, in the same setting: as for `N=C(N)NCCCC#Cc1ccc2c(c1)C(=O)N(CCC(=O)O)CC(=O)N2Cc1ccc(F)cc1F` [Cmpd 98], the figure is 0.024 µM; as for `NCCCCC#Cc1ccc2c(c1)C(=O)N(CCC(=O)O)CC(=O)N2Cc1ccc(F)cc1F` [Cmpd 99], 0.027 µM. Regarding `N=C(N)NCCCCC#Cc1ccc2c(c1)C(=O)N(CCC(=O)O)CC(=O)N2Cc1ccc(F)cc1F` [Cmpd 100], the IC50 is 0.025 µM.

Take `NCCCCCc1ccc2c(c1)C(=O)N(CCC(=O)O)CC(=O)N2Cc1ccc(F)cc1F` [Cmpd 101]: the IC50 is 0.2 µM. Still for that read-out and setting: in the case of `N=C(N)NCCCCCc1ccc2c(c1)C(=O)N(CCC(=O)O)CC(=O)N2Cc1ccc(F)cc1F` [Cmpd 102] it was 0.016 µM; in that of `NCCCCCCc1ccc2c(c1)C(=O)N(CCC(=O)O)CC(=O)N2Cc1ccc(F)cc1F` [Cmpd 103, 1-(2,4-difluorophenyl)methyl-4-(2-carboxyethyl)-7-(6-aminohexyl)-3,4-dihydro-1H-1,4-benzodiazapine-2,5-dione], 0.021 µM. The same measure, in the same setting: in the case of `N=C(N)NCCCCCCc1ccc2c(c1)C(=O)N(CCC(=O)O)CC(=O)N2Cc1ccc(F)cc1F` [Cmpd 104] it was 0.038 µM; in that of `CC(=O)NCCCCCCc1ccc2c(c1)C(=O)N(CCC(=O)O)CC(=O)N2Cc1ccc(Cl)cc1` [Cmpd 105], 8.5 µM.

Staying with this experiment, now noted: Examples 29 and 30, Cmpd # tables; read-out: IC50 (μM) Fg/IIbIIIa.
Turning to `NCCCC#Cc1ccc2c(c1)C(=O)N(CCC(=O)O)CC(=O)N2Cc1cccc(NC(=O)CN)c1` [Cmpd 106], the IC50 came out at 0.068 µM.

Turning to `NCCCCCCc1ccc2c(c1)C(=O)N(CCC(=O)O)CC(=O)N2Cc1ccc(NC(=O)CCN)cc1` [Cmpd 118], the IC50 turned out to be 0.019 µM. Same read-out and setting: in the case of `N=C(N)NCCCCCCc1ccc2c(c1)C(=O)N(CCC(=O)O)CC(=O)N2Cc1ccc(NC(=O)CCNC(=N)N)cc1` [Cmpd 119] it was 0.013 µM; in that of `NCCCCCCc1ccc2c(c1)C(=O)N(CCC(=O)O)CC(=O)N2Cc1cccc(CCCCN)c1` [Cmpd 120], 0.024 µM; in that of `N=C(N)NCCCCCCc1ccc2c(c1)C(=O)N(CCC(=O)O)CC(=O)N2Cc1cccc(CCCCNC(=N)N)c1` [Cmpd 121], 0.02 µM.

On to `NCCCCCCc1ccc2c(c1)C(=O)N(CCC(=O)O)CC(=O)N2CCCCCN` [Cmpd 125], for which the IC50 was 0.064 µM.

On to `N=C(N)NCCCCCCc1ccc2c(c1)C(=O)N(CCC(=O)O)CC(=O)N2CCCCCNC(=N)N` [Cmpd 126], for which the IC50 is 0.04 µM.

For `NCCCCCCc1ccc2c(c1)C(=O)N(CCC(=O)O)CC(=O)N2Cc1ccc(N)cc1` [Cmpd 128], the IC50 was 0.024 µM. Same read-out and setting: in the case of `N=C(N)NCCCCCc1ccc2c(c1)C(=O)N(CCC(=O)O)CC(=O)N2CCCCC(=O)O` [Cmpd 131] it was 0.014 µM; in that of `NCCCCCc1ccc2c(c1)C(=O)N(CCC(=O)O)CC(=O)N2CCCCC(=O)O` [Cmpd 132], 0.931 µM; in that of `N=C(N)NCCCCCc1ccc2c(c1)C(=O)N(CCC(=O)O)CC(=O)N2Cc1ccc(C(=O)O)cc1` [Cmpd 133], 0.016 µM.

In the case of `N=C(N)NCCCCCCc1ccc2c(c1)C(=O)N(CCC(=O)O)CC(=O)N2Cc1ccc(C(=O)O)cc1` [Cmpd 134], the IC50 was found to be 0.019 µM. For the compound `NCCCCCCc1ccc2c(c1)C(=O)N(CCC(=O)O)CC(=O)N2Cc1ccc(C(=O)O)cc1` [Cmpd 135, 1-(4-carboxyphenyl)methyl-4-(2-carboxyethyl)-7-(6-aminohexyl)-3,4-dihydro-1H-1,4-benzodiazapine-2,5-dione], the IC50 amounted to 0.008 µM. Same read-out and setting: in the case of `NCCCCCc1ccc2c(c1)C(=O)N(CCC(=O)O)CC(=O)N2Cc1ccc(C(=O)O)cc1` [Cmpd 136] it was 0.176 µM; in that of `CN1C(=O)CN(CCC(=O)O)C(=O)c2cc3cc(C#CCN)ccc3cc21` [Cmpd 137, 1-methyl-4-(2-carboxyethyl)-8-(3-amino-1-propynyl)-3,4-dihydro 1H-1,4-napthodiazepine-2,4-dione trifluoracetate], 0.351 µM. Take `CN1C(=O)CN(CCC(=O)O)C(=O)c2cc3cc(C#CCNC(=N)N)ccc3cc21` [Cmpd 138, 1-Methyl-4-(carboxyethyl)-8-(3-guanidino-1-propynyl)-3,4-dihydro-1H-1,4-naphthodiazepine-2,5-dione]: the IC50 was 0.009 µM. The same measure, in the same setting: in the case of `CN1C(=O)CN(CCC(=O)O)C(=O)c2cc3cc(CCCCN)ccc3cc21` [Cmpd 139] it was 0.153 µM. Take `CN1C(=O)CN(CCC(=O)O)C(=O)c2cc3cc(CCCCNC(=N)N)ccc3cc21` [Cmpd 140]: the IC50 was found to be 0.069 µM. Turning to `CN1C(=O)CN(CCC(=O)O)C(=O)c2cc3c(cc21)CCC(CCCN)C3` (centres unmarked) [Cmpd 141, 1-Methyl-4-(carboxyethyl)-8-(3-amino-1-propyl)-3,4,7,8,9,10-hexahydrohydro-1H-1,4-naphthodiazepine-2,5-dione], the IC50 is 1.8 µM. In the case of `CN1C(=O)CN(CCC(=O)O)C(=O)c2cc3c(cc21)CCC(CCCNC(=N)N)C3` (centres unmarked) [Cmpd 142], the IC50 turned out to be 0.068 µM. In the case of `CN1C(=O)CN(CCC(=O)O)C(=O)c2cc3c(cc21)CCC(CCCCN)C3` (centres unmarked) [Cmpd 143], the IC50 is 0.048 µM. On the same count and under the same terms, in the case of `NCCCC#Cc1ccc2c(c1)C(=O)N(CCC(=O)O)CCO2` [Cmpd 144] it was 12 µM; in that of `N=C(N)NCCCC#Cc1ccc2c(c1)C(=O)N(CCC(=O)O)CCO2` [Cmpd 145], 4 µM. Still for that read-out and setting: in the case of `NCCCCCc1ccc2c(c1)C(=O)N(CCC(=O)O)CCO2` [Cmpd 146] it was 80 µM; in that of `N=C(N)NCCCCCc1ccc2c(c1)C(=O)N(CCC(=O)O)CCO2` [Cmpd 147], 3 µM; in that of `NCCCC#Cc1ccc2c(c1)C(=O)N(CCC(=O)O)CC(Cc1ccccc1)O2` (centres unmarked) [Cmpd 148], 5.9 µM. On the same count and under the same terms, in the case of `N=C(N)NCCCC#Cc1ccc2c(c1)C(=O)N(CCC(=O)O)CC(Cc1ccccc1)O2` (centres unmarked) [Cmpd 149] it was 0.823 µM; in that of `NCCOc1ccc(-c2ccc3c(c2)C(=O)N(CCC(=O)O)CC(Cc2ccccc2)O3)cc1` (centres unmarked) [Cmpd 150, trifluoroacetate], 0.119 µM. With `NCCCCCCCCOc1ccc2c(c1)C(=O)N(CCC(=O)O)CCC2` [Cmpd 151, 2-(2-carboxyethyl)-8-(8-aminooctyloxy)-2,3,4,5-tetrahydro-1H-2-benzazepin-1-one trifluoroacetate], the IC50 is over 100 µM.
